Like-named read-outs stand apart in the source and are kept apart here. Where a SMILES comes first, the peptide text is derived from it. The star is where a group is joined. X1 = COc1cc2c3cc1OCCOc1cc4c(cc1OC)Cc1cc5c(OC)cc1Cc1cc(c(OCc6cn(CCOCCOCCOCCOCCOCCOCCOCCOCCNC(=O)COCC(=O)*)nn6)cc1C4)OCCOc1cc(c(cc1OC)Cc1cc(c(OC)cc1C3)OCCO5)C2
Key:
[1] = background statement of the introduction, no reference given; cited from earlier work
Water solubility = format: physicochemical
HEK cells = conditions: over a similar range of concentrations; cited from earlier work

COc1cc2c3cc1OCCOc1cc4c(cc1OC)Cc1cc5c(OC)cc1Cc1cc(c(OC)cc1C4)OCCOc1cc(c(cc1OC)C3)Cc1cc(OC)c(cc1C2)OCCO5 [Cryptophane-A]
water solubility (in words) [1]: poor (low micromolar)

COc1cc2c3cc1OCCOc1cc4c(cc1OC)Cc1cc5c(OC)cc1Cc1cc(c(OCc6cn(CCOCCOCCOCCOCCOCCOCCOCCOCCNC(=O)COCC(=O)N[C@@H](CS)C(=O)N[C@@H](CCCNC(=N)N)C(=O)NCC(=O)N[C@@H](CC(=O)O)C(=O)N[C@@H](CCCNC(=N)N)C(=O)NCC(=O)N[C@@H](CC(=O)O)C(=O)N[C@@H](CCCNC(=N)N)C(=O)NCC(=O)N[C@@H](CC(=O)O)C(=O)N[C@@H](CCCNC(=N)N)C(=O)NCC(=O)N[C@@H](CC(=O)O)C(=O)O)nn6)cc1C4)OCCOc1cc(c(cc1OC)Cc1cc(c(OC)cc1C3)OCCO5)C2 [III] (X1-CRGDRGDRGDRGD-OH; C-terminus assumed)
water solubility (in words) (Water solubility): limited solubility

c12c3c4c5c1c1c6c7c2c2c8c3c3c9c4c4c%10c5c5c1c1c6c6c%11c7c2c2c7c8c3c3c8c9c4c4c9c%10c5c5c1c1c6c6c%11c2c2c7c3c3c8c4c4c9c5c1c1c6c2c3c41 [fullerene C60]
decrease in viability of HEK cells (HEK cells): 10-50%

Reference: PMC2645951 (Bioconjugate chemistry, 2008)
